According to the NIST ThermoML archive (doi:10.1016/j.tca.2013.03.017):
± gives the expanded uncertainty stated by the source.

What was measured:
[1] = 101 kPa, Liquid, Hot wire method
[2] = molar heat capacity at constant pressure; details: 101 kPa, Liquid, Small sample (50 mg) DSC
[3] = xn = mol fraction of the nth substance listed; details: 101 kPa, Liquid, Hot wire method, x2 = 0
[4] = molar heat capacity at constant pressure; xn = mol fraction of the nth substance listed; details: 101 kPa, Liquid, Small sample (50 mg) DSC, x2 = 0

O=S1(=O)CCCC1 [sulfolane]
Details | molar heat capacity at constant pressure, [2] [J/K/mol] | thermal conductivity, [1] [W/m/K]
303.15 K | 181.5 ± 2.8 | 0.1678 ± 0.0008
313.15 K | 185.1 ± 2.9 | 0.1656 ± 0.0012
323.15 K | 188.7 ± 2.9 | 0.1634 ± 0.0011
333.15 K | 192.3 ± 3 | 0.1616 ± 0.0011
343.15 K | 194.3 ± 3 | 0.1593 ± 0.0011
353.15 K | 197.8 ± 3.1 | 0.1581 ± 0.0009

O [water] + O=S1(=O)CCCC1
Details | molar heat capacity at constant pressure, [4] [J/K/mol] | thermal conductivity, [3] [W/m/K]
303.15 K | 75.3 ± 1.2 | 0.6137 ± 0.0027
313.15 K | 75.26 ± 1.2 | 0.6307 ± 0.0039
323.15 K | 75.3 ± 1.2 | 0.6437 ± 0.0039
333.15 K | 75.39 ± 1.2 | 0.6548 ± 0.004
343.15 K | 75.48 ± 1.2 | 0.6632 ± 0.004
353.15 K | 75.6 ± 1.2 | 0.67 ± 0.0037

O [water]
Details | molar heat capacity at constant pressure, [2] [J/K/mol] | thermal conductivity, [1] [W/m/K]
303.15 K | 75.3 ± 1.2 | 0.6137 ± 0.0027
313.15 K | 75.26 ± 1.2 | 0.6307 ± 0.0039
323.15 K | 75.3 ± 1.2 | 0.6437 ± 0.0039
333.15 K | 75.39 ± 1.2 | 0.6548 ± 0.004
343.15 K | 75.48 ± 1.2 | 0.6632 ± 0.004
353.15 K | 75.6 ± 1.2 | 0.67 ± 0.0037
